Experimental data reported in patent publication US20180343865A1, “HERBICIDAL COMPOSITIONS COMPRISING ISOXAZOLO[5,4-B]PYRIDINES” (BASF SE, priority 2015, published 2018).
Several values for one entry are separate records, joined by “and”; a condition that tells them apart may be missing. Equal values may be shown once. Read-outs that look alike come from different tables or passages of the source.

Key:
Type in all cases: in vivo
[1] = tested on: ALOMY; test: Greenhouse postemergence herbicidal activity on ALOMY, 20 DAT; conditions: Alopecurus myosuroides, post-emergence, Table 8, read-out: % activity, solo application (I.A)
[2] = tested on: Conyza canadiensis; test: Greenhouse postemergence herbicidal activity on ERICA, 20 DAT; conditions: Conyza, post-emergence, ERICA, postemergence; for inhibition at 31.25 g/ha: 31.25 gai/ha
Experimental: (§1) For the post emergence treatment, the plants were first grown to the 2 leaf station (GS 12) and applied at GS 12-19 depending on the species. The herbicidal compositions were suspended or emulsified in water as distribution medium and sprayed using finely distributing nozzles.
(§2) The plants have been cultivated due to their individual requirements at 10 to 25° C. and. 20 to 35° C. The plants were irrigated due to their necessity.
(§3) The respective stated components A), were formulated as a 5% by weight strength emulsion concentrate containing wettol EM 31 20% and Cyclohexanone 80%. The respective stated components B), were formulated as either emulsifiable concentrates (EC), soluble liquids (SL), suspension concentrates (SC) or soluble granules (SG) as indicated in the table below. Component A, component B and the solvent system are introduced into the spray liquor used for applying the active compound. In the examples, the solvent used was water containing 1% Dash (Agnique ME 181 37.5%, Lutensit A-EP 22.5%, and Oleic Acid 5%) and 2% ammonium suflate.
(§4) In the following experiments, the herbicidal activity for the individual herbicide compounds (solo and mixture applications), the herbicidal succession was assessed 20 days after treatment (DAT). The evaluation for the damage on undesired weeds caused by the chemical compositions was carried out using a scale from 0 to 100%, compared to the untreated control plants. Here, 0 means no damage and 100 means complete destruction of the plants. The plants used in the greenhouse experiments belonged to the following species:
(§5) The value E, which corresponds to the effect (in %) that is to be expected if the activity of the individual compounds is additive, was calculated using the method of S. R. Colby (1967) “Calculating synergistic and antagonistic responses of herbicide combinations”, Weeds 15, p. 22 ff. Colby calculation for 2 way mixtures:
(§6) where: • X=effect in percent using herbicide A at an application rate a; • Y=effect in percent using herbicide B at an application rate b; • E=expected effect (in %) of A+B at application rates a+b
(§7) If the value observed in this manner is higher than the value E calculated according to Colby, a synergistic effect is present.

[3] = tested on: Polygonum convolvulus; test: Greenhouse postemergence herbicidal activity on POLCO, 20 DAT; conditions: Fallopia convolvulus, post-emergence, POLCO, postemergence; for inhibition at 62.5 g/ha: 62.5 gai/ha
Experimental: as §1, §2, §3, §4, §5, §6, §7

[4] = tested on: Chenopodium album; test: Greenhouse postemergence herbicidal activity on CHEAL, 20 DAT; conditions: for inhibition at 15.6 g/ha: 15.6 gai/ha; for inhibition at 125 g/ha: 125 gai/ha; for inhibition at 250 g/ha: 250 gai/ha
Experimental: as §1, §2, §3, §4, §5, §6, §7

[5] = tested on: Kochia scoparia; test: Greenhouse postemergence herbicidal activity on KCHSC, 20 DAT; conditions: for inhibition at 31.25 g/ha: 31.25 gai/ha; for inhibition at 62.5 g/ha: 62.5 gai/ha
Experimental: as §1, §2, §3, §4, §5, §6, §7

[6] = tested on: Polygonum persicaria; test: Greenhouse postemergence herbicidal activity on POLPE, 20 DAT; conditions: Persicaria maculosa, post-emergence, 480 h, POLPE, postemergence, 20 DAT, read-out: % activity, solo (I.A)
Experimental: as §1, §2, §3, §4, §5, §6, §7

[7] = tested on: Stellaria media; test: Greenhouse postemergence herbicidal activity on STEME, 20 DAT; conditions: STEME, postemergence
Experimental: as §1, §2, §3, §4, §5, §6, §7

[8] = tested on: DIGSA; test: Greenhouse postemergence herbicidal activity on DIGSA, 20 DAT; conditions: Digitaria sanguinalis, post-emergence, Table 8, read-out: % activity, solo application (I.A)
[9] = tested on: CONAR; test: Greenhouse postemergence herbicidal activity on CONAR, 20 DAT; conditions: post-emergence, Table 8, read-out: % activity, solo application (I.A)
[10] = tested on: Matricaria chamomilla; test: Greenhouse postemergence herbicidal activity on MATCH, 20 DAT; conditions: Matricaria chamomilla, post-emergence, 62.5 gai/ha
Experimental: as §1, §2, §3, §4, §5, §6, §7

[11] = tested on: Abutilon theoprasti; test: Greenhouse postemergence herbicidal activity on ABUTH, 20 DAT
Experimental: as §1, §2, §3, §4, §5, §6, §7

[12] = tested on: Sorghum bicolor; test: Greenhouse postemergence herbicidal activity on SORVU, 20 DAT; conditions: Sorghum bicolor, post-emergence, 480 h, SORVU, postemergence, 20 DAT, read-out: % activity, solo (I.A)
Experimental: as §1, §2, §3, §4, §5, §6, §7

[13] = tested on: BROST; test: Greenhouse postemergence herbicidal activity on BROST, 20 DAT; conditions: post-emergence, 31.25 gai/ha, Table 8, read-out: % activity, solo application (I.A)
[14] = tested on: Sinapis arvensis; test: Greenhouse postemergence herbicidal activity on SINAR, 20 DAT; conditions: Mutarda arvensis, post-emergence, 480 h, read-out: % activity, solo (I.A)
Experimental: as §1, §2, §3, §4, §5, §6, §7

[15] = tested on: Setaria viridis; test: Greenhouse postemergence herbicidal activity on SETVI, 20 DAT; conditions: post-emergence, 62.5 gai/ha, Table 8, read-out: % activity, solo application (I.A)
Experimental: as §1, §2
The respective stated components A), were formulated as a 5% by weight strength emulsion concentrate containing wettol EM 31 20% and Cyclohexanone 80%. The respective stated components B), were formulated as either emulsifiable concentrates (EC), soluble liquids (SL), suspension concentrates (SC) or soluble granules (SG) as indicated in the table below. […]
In the following experiments, the herbicidal activity for the individual herbicide compounds (solo and mixture applications), the herbicidal succession was assessed 20 days after treatment (DAT). […]
The value E, which corresponds to the effect (in %) that is to be expected if the activity of the individual compounds is additive, was calculated using the method of S. R. Colby (1967) “Calculating synergistic and antagonistic responses of herbicide combinations”, Weeds 15, p. […]
as §7

[16] = 480 h, 15.6 gai/ha, 20 DAT, read-out: % activity, solo (I.A)
[17] = 480 h, 20 DAT, read-out: % activity, solo (I.A)
[18] = Table 8, read-out: % activity, solo application (I.A)
[19] = Chenopodium album, post-emergence, Table 6, read-out: % activity, solo application (I.A)
[20] = Chenopodium album, post-emergence, 480 h, 20 DAT, read-out: % activity, solo (I.A)
[21] = Bassia scoparia, post-emergence, Table 6, read-out: % activity, solo application (I.A)
[22] = Bassia scoparia, post-emergence, 480 h, 20 DAT, read-out: % activity, solo (I.A)

Structure (SMILES): CC(C)c1noc2nc(C3CC3)cc(C(=O)O)c12 [(I.A)]
- inhibition at 15.6 g/ha ([1]; 15.6 gai/ha): 0%
- inhibition at 31.25 g/ha ([1]; 31.25 gai/ha): 0%
- inhibition at 62.5 g/ha ([1]; 62.5 gai/ha): 20%
- inhibition at 15.6 g/ha [2, 16]: 40%
- inhibition at 31.25 g/ha [2, 17]: 40%
- inhibition at 62.5 g/ha ([2]; 480 h, 62.5 gai/ha, 20 DAT, read-out: % activity, solo (I.A)): 90%
- inhibition at 31.25 g/ha [2, 18]: 35%
- inhibition at 15.6 g/ha [3, 16]: 30%
- inhibition at 31.25 g/ha ([3]; 31.25 gai/ha, Table 6, read-out: % activity, solo application (I.A)): 73%
- inhibition at 62.5 g/ha ([3]; Table 6, read-out: % activity, solo application (I.A)): 95%
- inhibition at 62.5 g/ha [3, 18]: 35%
- inhibition at 125 g/ha ([3]; 125 gai/ha, Table 6, read-out: % activity, solo application (I.A)): 99%
- % activity, solo (I.A) ([4]; 62.5 gai/ha, 20 DAT): 65% and 93%
- inhibition at 7.8 g/ha ([4]; Chenopodium album, post-emergence, 7.8 gai/ha, Table 8, read-out: % activity, solo application (I.A)): 50%
- inhibition at 15.6 g/ha ([4]; Chenopodium album, post-emergence, Table 8, read-out: % activity, solo application (I.A)): 85%
- inhibition at 31.25 g/ha ([4]; Chenopodium album, post-emergence, 31.25 gai/ha, Table 6, read-out: % activity, solo application (I.A)): 58%
- inhibition at 62.5 g/ha ([4]; Chenopodium album, post-emergence, 62.5 gai/ha, Table 6, read-out: % activity, solo application (I.A)): 78%
- inhibition at 125 g/ha [4, 19]: 83%
- inhibition at 250 g/ha [4, 19]: 98%
- inhibition at 15.6 g/ha [4, 20]: 10%
- inhibition at 125 g/ha [4, 20]: 83%
- inhibition at 250 g/ha [4, 20]: 98%
- % activity, solo (I.A) ([5]; 125 gai/ha, 20 DAT): 95%
- inhibition at 31.25 g/ha [5, 21]: 30%
- inhibition at 62.5 g/ha [5, 21]: 63%
- inhibition at 31.25 g/ha [5, 22]: 35%
- inhibition at 62.5 g/ha [5, 22]: 68%
- inhibition at 125 g/ha ([5]; Bassia scoparia, post-emergence, 480 h, 125 gai/ha, 20 DAT, read-out: % activity, solo (I.A)): 90%
- inhibition at 15.6 g/ha ([6]; 15.6 gai/ha): 70%
- inhibition at 31.25 g/ha ([6]; 31.25 gai/ha): 80%
- % activity, solo (I.A) ([7]; 31.25 gai/ha, 20 DAT): 35%
- % activity, solo (I.A) ([7]; 62.5 gai/ha, 20 DAT): 70% and 95%
- inhibition at 31.25 g/ha ([7]; Stellaria media, post-emergence, 480 h, 31.25 gai/ha, 20 DAT, read-out: % activity, solo (I.A)): 20%
- inhibition at 15.6 g/ha ([7]; Stellaria media, post-emergence, 15.6 gai/ha, Table 8, read-out: % activity, solo application (I.A)): 0%
- inhibition at 31.25 g/ha ([7]; Stellaria media, post-emergence, 31.25 gai/ha, Table 8, read-out: % activity, solo application (I.A)): 0%
- inhibition at 62.5 g/ha ([7]; Stellaria media, post-emergence, 62.5 gai/ha, Table 8, read-out: % activity, solo application (I.A)): 0%
- inhibition at 31.25 g/ha ([8]; 31.25 gai/ha): 0%
- inhibition at 62.5 g/ha ([8]; 62.5 gai/ha): 0%
- inhibition at 7.8 g/ha ([9]; 7.8 gai/ha): 0%
- inhibition at 15.6 g/ha ([9]; 15.6 gai/ha): 0%
- inhibition at 31.25 g/ha ([9]; 31.25 gai/ha): 0%
- inhibition at 62.5 g/ha ([9]; 62.5 gai/ha): 35%
- inhibition at 62.5 g/ha [10, 18]: 70%
- inhibition at 62.5 g/ha [10, 17]: 65%
- % activity, solo (I.A) ([11]; 62.5 gai/ha, 20 DAT): 98%
- inhibition at 7.8 g/ha ([11]; Abutilon, post-emergence, 7.8 gai/ha, Table 8, read-out: % activity, solo application (I.A)): 0%
- inhibition at 15.6 g/ha ([11]; Abutilon, post-emergence, 15.6 gai/ha, Table 8, read-out: % activity, solo application (I.A)): 0%
- inhibition at 31.25 g/ha ([11]; Abutilon, post-emergence, 31.25 gai/ha, Table 8, read-out: % activity, solo application (I.A)): 20%
- inhibition at 62.5 g/ha ([11]; Abutilon, post-emergence, 62.5 gai/ha, Table 6, read-out: % activity, solo application (I.A)): 70%
- inhibition at 62.5 g/ha ([11]; Abutilon, post-emergence, 62.5 gai/ha, Table 8, read-out: % activity, solo application (I.A)): 30%
- inhibition at 125 g/ha ([11]; Abutilon, post-emergence, 480 h, 125 gai/ha, 20 DAT, read-out: % activity, solo (I.A)): 73%
- inhibition at 250 g/ha ([11]; Abutilon, post-emergence, 480 h, 250 gai/ha, 20 DAT, read-out: % activity, solo (I.A)): 92%
- inhibition at 15.6 g/ha ([12]; 15.6 gai/ha): 30%
- inhibition at 31.25 g/ha ([12]; 31.25 gai/ha): 30%
- inhibition at 62.5 g/ha ([12]; 62.5 gai/ha): 30%
- inhibition at 125 g/ha ([12]; 125 gai/ha): 40%
- inhibition at 31.25 g/ha [13]: 0%
- inhibition at 15.6 g/ha ([14]; 15.6 gai/ha): 95%
- inhibition at 31.25 g/ha ([14]; 31.25 gai/ha): 78%
- inhibition at 62.5 g/ha ([14]; 62.5 gai/ha): 83%
- inhibition at 125 g/ha ([14]; 125 gai/ha): 90%
- inhibition at 62.5 g/ha [15]: 30%
